Assay results as given in US8119628B2, “Pyrrolidine fused indolobenzadiazepine HCV NS5B inhibitors” (Bristol-Myers Squibb Company, priority 2008, dated 2012).

Key:
HCV NS5B = molecular target: T1, HCV NS5B (Hepatitis C virus genotype 1b, UniProt Q9WMX2); assay: Modified HCV NS5B RdRp enzyme assay (preincubation protocol); format: biochemical; conditions: HCV NS5B RdRp genotype 1b
T1 construct: The protein was expressed with an 18 amino acid C-terminal truncation to enhance the solubility; made in house; host or cells: E. coli BL21(DE3)
Description: HCV NS5B RdRp cloning, expression, and purification. The cDNA encoding the NS5B protein of HCV, genotype 1b, was cloned into the pET21a expression vector. The protein was expressed with an 18 amino acid C-terminal truncation to enhance the solubility. The E. coli competent cell line BL21(DE3) was used for expression of the protein. Cultures were grown at 37° C. for ˜4 hours until the cultures reached an optical density of 2.0 at 600 nm. The cultures were cooled to 20° C. and induced with 1 mM IPTG. Fresh ampicillin was added to a final concentration of 50 μg/ml and the cells were grown overnight at 20° C.
Cell pellets (3 L) were lysed for purification to yield 15-24 […] of purified NS5B. The lysis buffer consisted of 20 mM Tris-HCl, pH 7.4, 500 mM NaCl, 0.5% triton X-100, 1 mM DTT, 1 mM EDTA, 20% glycerol, 0.5 mg/ml lysozyme, 10 mM MgCl2, 15 ug/ml deoxyribonuclease I, and Complete TM protease inhibitor tablets (Roche). After addition of the lysis buffer, frozen cell pellets were resuspended using a tissue homogenizer. To reduce the viscosity of the sample, aliquots of the lysate were sonicated on ice using a microtip attached to a Branson sonicator. The sonicated lysate was centrifuged at 100,000×g for 1 hr at 4° C. and filtered through a 0.2 μm filter unit (Corning).
The protein was purified using three sequential chromatography steps: Heparin sepharose CL-6B, polyU sepharose 4B, and Hitrap SP sepharose (Pharmacia). The chromatography buffers were identical to the lysis buffer but contained no lysozyme, deoxyribonuclease I, MgCl2 or protease inhibitor and the NaCl concentration of the buffer was adjusted according to the requirements for charging the protein onto the column. Each column was eluted with a NaCl gradient which varied in length from 5-50 column volumes depending on the column type. After the final chromatography step, the resulting purity of the enzyme is >90% based on SDS-PAGE analysis. The enzyme was aliquoted and stored at −80° C.
Standard HCV NS5B RdRp enzyme assay. HCV RdRp genotype 1b assays were run in a final volume of 60 μl in 96 well plates (Costar 3912). The assay buffer is composed of 20 mM Hepes, pH 7.5, 2.5 mM KCl, 2.5 mM MgCl2, 1 mM DTT, 1.6 U RNAse inhibitor (Promega N2515), 0.1 mg/ml BSA (Promega R3961), and 2% glycerol. All compounds were serially diluted (3-fold) in DMSO and diluted further in water such that the final concentration of DMSO in the assay was 2%. HCV RdRp genotype 1b enzyme was used at a final concentration of 28 nM. A polyA template was used at 6 nM, and a biotinylated oligo-dT12 primer was used at 180 nM final concentration. Template was obtained commercially (Amersham 27-4110). Biotinylated primer was prepared by Sigma Genosys. 3H-UTP was used at 0.6 μCi (0.29 μM total UTP). Reactions were initiated by the addition of enzyme, incubated at 30° C. for 60 min, and stopped by adding 25 μl of 50 mM EDTA containing SPA beads (4 μg/μl, Amersham RPNQ 0007). Plates were read on a Packard Top Count NXT after >1 hr incubation at room temperature.
Modified HCV NS5B RdRp enzyme assay. A modified enzyme assay was performed essentially as described for the standard enzyme assay except for the following: The biotinylated oligo dTl2 primer was precaptured on streptavidin-coated SPA beads by mixing primer and beads in assay buffer and incubating at room temperature for one hour. Unbound primer was removed after centrifugation. The primer-bound beads were resuspended in 20 mM Hepes buffer, pH 7.5 and used in the assay at final concentrations of 20 nM primer and […] beads. Order of addition in the assay: enzyme (14 nM) was added to diluted compound followed by the addition of a mixture of template (0.2 nM), 3H-UTP (0.6 μCi, 0.29 μM), and primer-bound beads, to initiate the reaction; concentrations given are final. Reactions were allowed to proceed for 4 hours at 30° C.
IC50 values for compounds were determined using seven different. […]

HCV replicon cells = assay: HCV FRET assay in HCV replicon cells; format: cell-based; conditions: Hepatitis C virus
Description: FRET Assay Preparation. To perform the HCV FRET screening assay, 96-well cell culture plates were used. The FRET peptide (Anaspec, Inc.) (Taliani et al., Anal. Biochem. 1996, 240, 60-67) contains a fluorescence donor, EDANS, near one end of the peptide and an acceptor, DABCYL, near the other end. The fluorescence of the peptide is quenched by […] resonance energy transfer (RET) between the donor and the acceptor, but as the NS3 protease cleaves the peptide the products are released from RET quenching and the fluorescence of the donor becomes apparent. The assay reagent was made as follows: 5× cell Luciferase cell culture lysis reagent from Promega (#E153A) diluted to 1× with dH2O, NaCl added to 150 mM final, the FRET peptide diluted to 20 uM final from a 2 mM stock.
To prepare plates, HCV replicon cells, with or without a Renilla luciferase reporter gene, were trypsinized and placed into each well of a 96-well plate with titrated test compounds added in columns 3 through 12; columns 1 and 2 contained a control compound (HCV protease inhibitor), and the bottom row contained cells without compound. The plates were then placed in a CO2 incubator at 37° C.
Assays. Subsequent to addition of the test compounds described above (FRET Assay Preparation), at various times the plate was removed and Alamar blue solution (Trek Diagnostics, #00-100) was added per well as a measure of cellular toxicity. After reading in a Cytoflour 4000 instrument (PE Biosystems), plates were rinsed with PBS and then used for FRET assay by the addition of 30 ul of the FRET peptide assay reagent described above (FRET Assay Preparation) per well. The plate was then placed into the Cytoflour 4000 instrument which had been set to 340 excite/490 emission, automatic mode for 20 cycles and the plate read in a kinetic mode. Typically, the signal to noise using an endpoint analysis after the reads was at least three-fold. Alternatively, after Alamar blue reading, plates were rinsed with PBS, 50 ul of DMEM (high glucose) without phenol red was added and plates were then used for luciferase assay using the Promega Dual-Glo Luciferase Assay System.
Compound analysis was determined by quantification of the relative HCV replicon inhibition and the relative cytotoxicity values. To calculate cytoxicity values, the average Alamar Blue fluorescence signals from the control wells were set as 100% non-toxic. The individual signals in each of the compound test wells were then divided by the average control signal and multiplied by 100% to determine […]. To calculate the HCV replicon inhibition values, an average background value was obtained from the two wells containing the highest amount of HCV protease inhibitor at the end of the assay period. These numbers were similar to those obtained from naïve Huh-7 cells.
The background numbers were then subtracted from the average signal obtained from the control wells and this number was used as 100% activity. The individual signals in each of the compound test wells were then divided by the averaged control values after background subtraction and multiplied by 100% to determine percent activity. EC50 values for a protease inhibitor titration were calculated as the concentration which caused a 50% reduction in FRET or luciferase activity. The two numbers generated for the compound plate, percent cytoxicity and percent activity were used to determine compounds of interest for further analysis.

T1 sequence (Q9WMX2 2420-2992): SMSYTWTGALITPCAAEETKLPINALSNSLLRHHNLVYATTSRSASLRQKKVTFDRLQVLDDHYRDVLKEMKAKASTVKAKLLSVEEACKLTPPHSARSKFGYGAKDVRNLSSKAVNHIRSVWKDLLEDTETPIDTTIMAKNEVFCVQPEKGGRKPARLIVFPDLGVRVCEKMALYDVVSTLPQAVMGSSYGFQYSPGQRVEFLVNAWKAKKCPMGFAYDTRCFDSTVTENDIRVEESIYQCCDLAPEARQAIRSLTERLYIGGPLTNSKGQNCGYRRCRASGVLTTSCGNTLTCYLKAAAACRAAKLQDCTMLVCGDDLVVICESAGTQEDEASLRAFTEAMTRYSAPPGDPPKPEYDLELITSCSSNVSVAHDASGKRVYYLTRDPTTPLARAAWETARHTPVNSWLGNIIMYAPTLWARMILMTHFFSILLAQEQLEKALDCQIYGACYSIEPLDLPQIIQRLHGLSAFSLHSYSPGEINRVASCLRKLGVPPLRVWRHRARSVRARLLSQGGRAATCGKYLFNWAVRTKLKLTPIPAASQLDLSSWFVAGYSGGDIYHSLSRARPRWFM

SMILES	IC50 (HCV NS5B)	EC50 (HCV replicon cells)	IC50 (HCV NS5B; reported as class)	EC50 (HCV replicon cells; reported as class)
COc1ccc2c(c1)C1CN(Cc3ccccc3)CC1(C(=O)N1C[C@@H](C)O[C@@H](C)C1)Cn1c-2c(C2CCCCC2)c2ccc(C(=O)NS(=O)(=O)N(C)C)cc21 (mixture of isomers) [Example 1, rac-(3aR,14bR)-2-benzyl-10-cyclohexyl-3a-(((2S,6R)-2,6-dimethyl-4-morpholinyl)carbonyl)-N-(dimethylsulfamoyl)-13-methoxy-1,2,3,3a,4,14b-hexahydroindolo[2,1-a]pyrrolo[3,4-d][2]benzazepine-7-carboxamide]	430 nM	210 nM		
COc1ccc2c(c1)C1CNCC1(C(=O)N1C[C@@H](C)O[C@@H](C)C1)Cn1c-2c(C2CCCCC2)c2ccc(C(=O)NS(=O)(=O)N(C)C)cc21 (mixture of isomers) [Example 2, rac-(3aR,14bR)-10-cyclohexyl-3a-(((2S,6R)-2,6-dimethyl-4-morpholinyl)carbonyl)-N-(dimethylsulfamoyl)-13-methoxy-1,2,3,3a,4,14b-hexahydroindolo[2,1-a]pyrrolo[3,4-d][2]benzazepine-7-carboxamide]			20 to 500 nM	20 to 500 nM
COc1ccc2c(c1)C1CN(C)CC1(C(=O)N1C[C@@H](C)O[C@@H](C)C1)Cn1c-2c(C2CCCCC2)c2ccc(C(=O)NS(=O)(=O)N(C)C)cc21 (mixture of isomers) [Example 3, rac-(3aR,14bR)-10-Cyclohexyl-3a-(((2S,6R)-2,6-dimethyl-4-morpholinyl)carbonyl)-N-(dimethylsulfamoyl)-13-methoxy-2-methyl-1,2,3,3a,4,14b-hexahydroindolo[2,1-a]pyrrolo[3,4-d][2]benzazepine-7-carboxamide]			20 to 500 nM	20 to 500 nM
COc1ccc2c(c1)C1CN(C(C)=O)CC1(C(=O)N1C[C@@H](C)O[C@@H](C)C1)Cn1c-2c(C2CCCCC2)c2ccc(C(=O)NS(=O)(=O)N(C)C)cc21 (mixture of isomers) [Example 4, rac-(3aR,14bR)-2-Acetyl-10-cyclohexyl-3a-(((2S,6R)-2,6-dimethyl-4-morpholinyl)carbonyl)-N-(dimethylsulfamoyl)-13-methoxy-1,2,3,3a,4,14b-hexahydroindolo[2,1-a]pyrrolo[3,4-d][2]benzazepine-7-carboxamide]			20 to 500 nM	20 to 500 nM
COc1ccc2c(c1)C1CN(C(C)C)CC1(C(=O)N1C[C@@H](C)O[C@@H](C)C1)Cn1c-2c(C2CCCCC2)c2ccc(C(=O)NS(=O)(=O)N(C)C)cc21 (mixture of isomers) [Example 5, rac-(3aR,14bR)-10-Cyclohexyl-3a-(((2S,6R)-2,6-dimethyl-4-morpholinyl)carbonyl)-N-(dimethylsulfamoyl)-2-isopropyl-13-methoxy-1,2,3,3a,4,14b-hexahydroindolo[2,1-a]pyrrolo[3,4-d][2]benzazepine-7-carboxamide]	200 nM	120 nM		
COc1ccc2c(c1)C1CN(Cc3ccccc3)CC1(C(=O)N(C)C)Cn1c-2c(C2CCCCC2)c2ccc(C(=O)NS(=O)(=O)N(C)C)cc21 (racemic) [Example 6, rac-(3aR,14bR)-2-benzyl-10-cyclohexyl-N^7-(dimethylsulfamoyl)-13-methoxy-N^3a,N^3a-dimethyl-1,2,3,14b-tetrahydroindolo[2,1-a]pyrrolo[3,4-d][2]benzazepine-3a,7(4H)-dicarboxamide]			20 to 500 nM	20 to 500 nM
COc1ccc2c(c1)C1CNCC1(C(=O)N(C)C)Cn1c-2c(C2CCCCC2)c2ccc(C(=O)NS(=O)(=O)N(C)C)cc21 (racemic) [Example 7, rac-(3aR,14bR)-10-cyclohexyl-N^7-(dimethylsulfamoyl)-13-methoxy-N^3a,N^3a-dimethyl-1,2,3,14b-tetrahydroindolo[2,1-a]pyrrolo[3,4-d][2]benzazepine-3a,7(4H)-dicarboxamide]	41 nM	22 nM		
COc1ccc2c(c1)C1CN(C(=O)N(C)C)CC1(C(=O)N(C)C)Cn1c-2c(C2CCCCC2)c2ccc(C(=O)NS(=O)(=O)N(C)C)cc21 (racemic) [Example 8, rac-(3aR,14bR)-10-cyclohexyl-N^7-(dimethylsulfamoyl)-13-methoxy-N^2,N^2,N^3a,N^3a-tetramethyl-1,14b-dihydroindolo[2,1-a]pyrrolo[3,4-d][2]benzazepine-2,3a,7(3H,4H)-tricarboxamide]			20 to 500 nM	20 to 500 nM
COc1ccc2c(c1)C1CN(C(C)=O)CC1(C(=O)N(C)C)Cn1c-2c(C2CCCCC2)c2ccc(C(=O)NS(=O)(=O)N(C)C)cc21 (racemic) [Example 9, rac-(3aR,14bR)-2-acetyl-10-cyclohexyl-N^7-(dimethylsulfamoyl)-13-methoxy-N^3a,N^3a-dimethyl-1,2,3,14b-tetrahydroindolo[2,1-a]pyrrolo[3,4-d][2]benzazepine-3a,7(4H)-dicarboxamide]			20 to 500 nM	20 to 500 nM
COc1ccc2c(c1)C1CN(C)CC1(C(=O)N(C)C)Cn1c-2c(C2CCCCC2)c2ccc(C(=O)NS(=O)(=O)N(C)C)cc21 (racemic) [Example 10, rac-(3aR,14bR)-10-Cyclohexyl-N^7-(dimethylsulfamoyl)-13-methoxy-N^3a,N^3a,2-trimethyl-1,2,3,14b-tetrahydroindolo[2,1-a]pyrrolo[3,4-d][2]benzazepine-3a,7(4H)-dicarboxamide]	37 nM	26 nM		
